Laboratory results: US20090209633A1, “Treatment of Pain With Resiniferatoxin and Related Analogs” (priority 2006, published 2009)
“Also recorded” adds a separate entry of the source. Where two headings read alike, the source gives them in different places.

Key:
[1] = biological target: T1, native TRPV1 (Rattus norvegicus, UniProt O35433); test: Single-channel currents in cell-attached patches from DRG neurons; format: cell-based; design: Open time τ4 / Closed time τ1 / Closed time τ2 / Closed time τ3 / Closed time τ4: unit not given here; conditions: for single-channel conductance / single-channel current amplitude / Po (single-channel open probability): cell-attached; for single-channel conductance / single-channel current amplitude: RTX, capsaicin 100 nM; for Closed time τ1 / Closed time τ2 / Closed time τ3 / Open time τ1 / Open time τ2 / Open time τ3 / Po (single-channel open probability): RTX 0.1 nM; for Closed time τ1 / Closed time τ2 / Closed time τ3 / Open time τ1 / Open time τ2 / Open time τ3 / Po (single-channel open probability) / Closed time τ4 / Open time τ4: CAP 100 nM; for slope conductance, inward limb / negative potentials: between 0 and −100 mV
T1 construct: RTX-induced membrane currents on native TRPV1 in embryonic DRG neurons grown in culture; endogenous in cells; host or cells: primary rat E18 DRG neurons
T1 sequence (O35433 whole entry): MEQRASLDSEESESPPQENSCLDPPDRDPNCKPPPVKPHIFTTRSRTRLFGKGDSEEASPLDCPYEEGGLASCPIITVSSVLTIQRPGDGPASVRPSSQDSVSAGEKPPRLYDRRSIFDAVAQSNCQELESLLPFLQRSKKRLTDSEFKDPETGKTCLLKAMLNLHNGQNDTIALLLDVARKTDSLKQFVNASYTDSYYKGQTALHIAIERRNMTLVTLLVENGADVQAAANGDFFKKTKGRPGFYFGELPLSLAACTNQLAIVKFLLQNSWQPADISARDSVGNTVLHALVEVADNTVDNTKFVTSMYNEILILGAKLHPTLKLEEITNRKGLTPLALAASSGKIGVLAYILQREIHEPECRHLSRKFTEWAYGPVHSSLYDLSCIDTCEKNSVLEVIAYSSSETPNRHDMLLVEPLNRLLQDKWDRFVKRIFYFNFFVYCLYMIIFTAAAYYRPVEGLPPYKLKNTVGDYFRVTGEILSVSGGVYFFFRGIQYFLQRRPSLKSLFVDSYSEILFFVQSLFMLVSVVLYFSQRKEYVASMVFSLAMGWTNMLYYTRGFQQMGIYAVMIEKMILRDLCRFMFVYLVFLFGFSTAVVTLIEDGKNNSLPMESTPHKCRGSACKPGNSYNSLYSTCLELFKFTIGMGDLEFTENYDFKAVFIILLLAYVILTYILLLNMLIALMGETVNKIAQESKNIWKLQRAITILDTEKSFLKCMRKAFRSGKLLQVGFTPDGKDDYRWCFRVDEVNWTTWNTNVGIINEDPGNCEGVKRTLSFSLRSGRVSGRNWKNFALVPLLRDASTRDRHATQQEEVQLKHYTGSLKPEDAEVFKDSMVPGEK
Excerpt: For single-channel recording in cell-attached patches from DRG neurons, the bath solution contained (mM): potassium gluconate 140, KCl 2.5, MgCl2 1, Hepes 5 and EGTA 1.5; pH adjusted to 7.35 with NaOH. The patch pipettes were made from glass capillaries (Drummond, Microcaps), coated with Sylgard (Dow Corning, Midland, Mich., USA). For cell-attached patches, the patch pipettes were filled with a solution that contained (mM): sodium gluconate 140, NaCl 10, MgCl2 1, Hepes 5 and EGTA 1.5; pH adjusted to 7.35 with NaOH. While recording from cell-attached patches, in order to avoid differences in the driving force because of the differences in the membrane potential, the external NaCl was replaced by an equal amount of KCl in order to nullify the membrane potential. For outside-out patches, the pipette solution contained (mM): sodium gluconate 90, NaCl 10, BAPTA 10, Hepes 10, K2ATP2 and GTP 0.25; pH adjusted to 7.35 with NaOH. The bath solution contained (mM): sodium gluconate 100, KCl 2.5, MgCl2 1, Hepes 5 and EGTA 1.5; pH adjusted to 7.35 with NaOH. All the experiments were performed at room temperature (21-23° C.). Agar-bridge electrodes were used to avoid changes in junction potential. The currents were recorded using a WPC 100 (Warner Instruments) or Axopatch 2B (Axon Instruments, Union City, Calif., USA) patch-clamp amplifier. Data were filtered at 10 kHz (Axopatch 2B), digitized (VR-10B, Instrutech Corp.), and stored on videotapes. For the analysis of amplitude and open probability (Po), the data were filtered at 2.5 kHz (−3 db frequency with an 8-pole low-pass Bessel filter, Warner Instruments) and digitized at 5 kHz. For dwell-time analysis, the data were filtered at 10 kHz and digitized at 50 kHz.
Single-channel analysis. Single-channel current amplitude and Po were estimated from all-point current amplitude histograms (Channel 2 software kindly provided by Michael Smith, Australian National University, Can berra, Australia) and fitted to Gaussian densities (Origin, OriginLab Corp., Northampton, Mass., USA). For current-voltage relationships, the amplitudes were determined by fitting a Gaussian curve to an all-point histogram. Po was determined using unedited segments of data, which were typically 1-5 min long. For multiple channel patches, the mean Po was measured as nPo, where n is the number of channels in the patch. Chord conductance was measured at +60 or −60 mV. […]
Single-channel currents were idealized using a modified Viterbi algorithm (QUB software, www.qub.buffalo.edu). Dwell-time distributions were fitted with mixtures of exponential densities using a method of maximum likelihood. Additional exponential components were incorporated only if the maximum log likelihood increased more than 2 log likelihood units. (Chung et al. 1990; Qin et al. 1996; Premkumar et al. 1997.) A dead time (Td) of 50 μs was imposed retrospectively, in that, events shorter than 50 μs were considered to be a part of the adjoining sojourns.
Single-channel conductance. To further evaluate the properties of TRPV1 activation by RTX, we recorded single-channel currents from cell-attached and excised patches from DRG neurons and oocytes heterologously expressing TRPV1. All recordings were carried out in the absence of extracellular calcium to avoid tachyphylaxis and desensitization of channel activity. (Docherty et al. 1996; Caterina et al. 1997; Koplas et al. 1997.) Single-channel current activity in cell-attached patches from DRG neurons were recorded at −60 and +60 mV, as shown in FIG. 3.

[2] = system: TRPV1; format: in vivo
Excerpt: Low concentrations of RTX (0.19 micrograms/kg) were introduced intrathecally.
FIG. 14 provides photographs of TRPV1 levels in paw skin with and without intrathecal RTX administration.

[3] = system: TRPV1-containing central terminals; test: Paw withdrawal latency and nocifensive behavior after intrathecal RTX administration; format: in vivo
Excerpt: FIG. 14 provides photographs of TRPV1 levels in paw skin with and without intrathecal RTX administration. […] However, because PWL is a test for acute pain sensation, it is inappropriate for studying TRPV1 involvement, because TRPV1 mediates inflammatory pain.

[4] = biological target: T2, vanilloid receptors (Rattus norvegicus, UniProt O35433); conditions: Acs et al. 1995; cited from earlier work
T2 sequence (O35433 whole entry): as above

[5] = biological target: T2, vanilloid receptors; conditions: Acs et al. 1995; read-out: Kd, ability to induce Ca2+ uptake; cited from earlier work
[6] = biological target: TRPV1 (Rattus norvegicus, UniProt O35433); conditions: Caterina et al. 1997, cited from earlier work
Sequence of TRPV1 (Rattus norvegicus, UniProt O35433) (O35433 whole entry): as above

[7] = biological target: T1, native TRPV1; conditions: capsaicin 1 μM, cell-attached, Premkumar et al. 2002, cited from earlier work
[8] = RTX 0.19 micrograms/kg intrathecal

C=C(C)[C@]12C[C@@H](C)[C@@]34O[C@](Cc5ccccc5)(O[C@@H]1[C@@H]3C=C(COC(=O)Cc1ccc(O)c(OC)c1)C[C@]1(O)C(=O)C(C)=C[C@@H]41)O2 [RTX, resiniferatoxin]
mean open time ([1]; +60 mV): 7.9 ms | single-channel conductance ([1]; +60 mV): 100±2.2 pS | single-channel current amplitude ([1]; +60 mV): 6.02±0.14 pA | change of Po with increasing concentration ([1]; RTX 0.1 to 20 nM): did not change | Closed time τ1 ([1]; Vm +60 mV): 0.1±0.008 | Closed time τ2 ([1]; Vm +60 mV): 0.46±0.02 | Closed time τ3 ([1]; Vm +60 mV): 8.7±3.9 | Open time τ1 ([1]; Vm +60 mV): 1.6 ± 1.2 ms | Open time τ2 ([1]; Vm +60 mV): 6.58 ± 0.56 ms | Open time τ3 ([1]; Vm +60 mV): 12 ± 1 ms | Po (single-channel open probability) ([1]; Vm +60 mV): 0.98±0.02 | Closed time τ1 ([1]; Vm −60 mV): 0.05±0.007 | Closed time τ2 ([1]; Vm −60 mV): 0.12±0.005 | Closed time τ3 ([1]; Vm −60 mV): 1.1±0.26 | Open time τ1 ([1]; Vm −60 mV): 0.46 ± 0.1 ms | Open time τ2 ([1]; Vm −60 mV): 5.57 ± 2.4 ms | Open time τ3 ([1]; Vm −60 mV): 10.2 ± 1.8 ms | Po (single-channel open probability) ([1]; Vm −60 mV): 0.94±0.02 | slope conductance, outward limb / positive potentials ([1]; between 0 and +100 mV): 126 pS | slope conductance, inward limb / negative potentials [1]: ~30 pS | Po of RTX-induced currents ([1]; cell-attached as well as outside-out patches, negative and positive potentials): ~0.9 | reversal potential of single-channel currents ([1]; recorded −100 to +100 mV): −2.9 mV | concentration that could maximally activate the receptor ([1]; single-channel recording): 0.1 to 0.2 nM | mean open time ([1]; −60 mV): 7.5 ms | single-channel conductance ([1]; −60 mV): 38.3±3.5 pS | single-channel current amplitude ([1]; −60 mV): 2.3±0.21 pA | TRPV1 levels in DRG [2, 8]: maintenance; also recorded: remained constant | TRPV1 levels in spinal cord dorsal horn (DH) [2, 8]: reduction; also recorded: significantly reduced | effect on cell body or peripheral terminals (paw skin TRPV1) ([2]; RTX intrathecal): without affecting the cell body or peripheral terminals | nocifensive behavior to intraplantar injection of capsaicin [3]: dramatic decrease; also recorded: significantly reduced | paw withdrawal latency (PWL) to radiant heat [3]: no change; also recorded: not affected | duration of guarding ([3]; intraplantar capsaicin): decreased significantly | number of guarding ([3]; intraplantar capsaicin): decreased significantly | fold more potent for binding as compared to Ca2+ uptake [4]: 25 fold | Ca2+ uptake potency (half-maximal concentration) [5]: 1 nM | fold more potent than capsaicin to activate TRPV1 current [6]: 20 fold | EC50 ([6]; read-out: EC50 to activate TRPV1 current): 39 nM

COc1cc(CNC(=O)CCCC/C=C/C(C)C)ccc1O [capsaicin]
mean open time ([1]; +60 mV): 3.8 ms | single-channel conductance ([1]; +60 mV): 95±0.1 pS | single-channel current amplitude ([1]; +60 mV): 5.67±0.06 pA | Closed time τ4 ([1]; Vm +60 mV): 70.84±47 | Open time τ4 ([1]; Vm +60 mV): 14.7±2.6 | Closed time τ4 ([1]; Vm +60 mV, listed as CAP): 70.84 ± 47 | Open time τ4 ([1]; Vm +60 mV, listed as CAP): 14.7 ± 2.6 | Closed time τ1 ([1]; Vm +60 mV): 0.06±0.02 | Closed time τ2 ([1]; Vm +60 mV): 0.67±0.39 | Closed time τ3 ([1]; Vm +60 mV): 1.66±0.39 | Open time τ1 ([1]; Vm +60 mV): 0.14 ± 0.04 ms | Open time τ2 ([1]; Vm +60 mV): 0.7 ± 0.13 ms | Open time τ3 ([1]; Vm +60 mV): 3.83 ± 0.62 ms | Closed time τ1 ([1]; Vm +60 mV, listed as CAP): 0.06 ± 0.02 | Closed time τ2 ([1]; Vm +60 mV, listed as CAP): 0.67 ± 0.39 | Closed time τ3 ([1]; Vm +60 mV, listed as CAP): 1.66 ± 0.39 | Open time τ1 ([1]; Vm +60 mV, listed as CAP): 0.14 ± 0.04 ms | Open time τ2 ([1]; Vm +60 mV, listed as CAP): 0.7 ± 0.13 ms | Open time τ3 ([1]; Vm +60 mV, listed as CAP): 3.83 ± 0.62 ms | Po (single-channel open probability) ([1]; Vm +60 mV): 0.53±0.04 | Po (single-channel open probability) ([1]; Vm +60 mV, listed as CAP): 0.53 ± 0.04 | Closed time τ4 ([1]; Vm −60 mV): 30.8±12.4 | Closed time τ4 ([1]; Vm −60 mV, listed as CAP): 30.8 ± 12.4 | Closed time τ1 ([1]; Vm −60 mV): 0.13±0.02 | Closed time τ2 ([1]; Vm −60 mV): 0.79±0.12 | Closed time τ3 ([1]; Vm −60 mV): 3.47±0.59 | Open time τ1 ([1]; Vm −60 mV): 0.11 ± 0.01 ms | Open time τ2 ([1]; Vm −60 mV): 0.76 ± 0.18 ms | Open time τ3 ([1]; Vm −60 mV): 2.61 ± 0.84 ms | Closed time τ1 ([1]; Vm −60 mV, listed as CAP): 0.13 ± 0.02 | Closed time τ2 ([1]; Vm −60 mV, listed as CAP): 0.79 ± 0.12 | Closed time τ3 ([1]; Vm −60 mV, listed as CAP): 3.47 ± 0.59 | Open time τ1 ([1]; Vm −60 mV, listed as CAP): 0.11 ± 0.01 ms | Open time τ2 ([1]; Vm −60 mV, listed as CAP): 0.76 ± 0.18 ms | Open time τ3 ([1]; Vm −60 mV, listed as CAP): 2.61 ± 0.84 ms | Po (single-channel open probability) ([1]; Vm −60 mV): 0.1±0.04 | Po (single-channel open probability) ([1]; Vm −60 mV, listed as CAP): 0.1 ± 0.04 | slope conductance, inward limb / negative potentials [1]: 41 pS | conductance level at which currents predominantly dwelled ([1]; capsaicin-induced currents): ~95 pS | mean open time ([1]; −60 mV): 1.27 ms | single-channel conductance ([1]; −60 mV): 40±1.95 pS | single-channel current amplitude ([1]; −60 mV): 2.4±0.12 pA | maximal Po ([7]; +60 mV): 0.4±0.08 | maximal Po ([7]; −60 mV): 0.8±0.04
